Data published in paper PMC8624133, “10th Trends in Medical Mycology Held on 8 to 11 October 2021, Aberdeen, Scotland, Organized by the European Confederation of Medical Mycology (ECMM)” (Journal of Fungi, 2021).
Values after ≈ are worked out from the molar mass of the structure shown. Values joined by “and” are separate entries in the source; they are usually repeats but may differ in a detail not shown here. Identical values can stand only once. Residues, ends and D or L forms follow the SMILES beside them. *: point of attachment. βNA = c1ccc2cc(N*)ccc2c1

Columns and labels:
[1] = test system: drug transporters of M. circinelloides and R. microsporus; assay: Rhodamine 6G efflux following glucose injection; type: cell-based, Mucor circinelloides, Rhizopus microsporus
Protocol: (§1) Methods: The inhibitory effect of PaβN on transporters activity was assessed by measuring the efflux of their fluorescent substrate rhodamine 6G following glucose injection. The interaction of PaβN and posaconazole was assessed by the chequerboard dilution method in order to determine the fractional inhibitory concentration index (FICI).

[2] = test system: M. circinelloides and R. microsporus; assay: Chequerboard dilution with posaconazole; type: cell-based, Mucor circinelloides, Rhizopus microsporus; settings: PaβN + posaconazole; five ATCC or clinical isolates
Protocol: as §1

[3] = Triazole drug levels in ABPA patients with asthma; type: in vivo, human; settings: 452 patients, Oct 2009 to March 2021
Text: Materials & Methods: This was a retrospective single-centre cohort study evaluating longitudinal outcomes in non-cystic fibrosis (CF) ABPA patients with underlying chronic lung disease (asthma), and description of treatment approaches. Statistical Analysis System (SAS) programming was used for data integration from multiple hospital electronic systems, for patient identification and data analysis. Criteria for inclusion were patients with a background of asthma, serum Total IgE >1000 IU/mL and a positive Aspergillus IgE, with or without a positive culture for A. fumigatus from a respiratory sample. Data collected included demographics, lung function severity, disease activity serological markers (Aspergillus IgE, Aspergillus IgG, Total IgE) and triazole levels. In this study the impact of fungal therapy on disease outcomes was assessed.

A. nidulans complex = settings: all isolates, n = 2
McLDM-F5-CPR = assay: microbe, parasite or virus in culture; type: cell-based, Saccharomyces cerevisiae AD2Δgal; settings: Saccharomyces cerevisiae, read-out: mean MIC
ISV blood levels, HPLC = type: in vivo, human; settings: for samples with level <1 mg/L: ICU
Protocol: Materials & Methods: ISV levels are routinely tested in our centre HPLC method. The lowest limit of quantification was set at 0.15 mg/L. ISV blood levels obtained between January 2017 and May 2021 were analysed and compared between those obtained from patients in ICU vs. others. Chi-square/Fisher’s exact test and Mann-Whitney test were used for categorical and continuous variables, respectively. Levels of ISV <1 mg/L were defined as low.

[4] = test system: C. auris Isolate B and Isolate C; assay: microbe, parasite or virus in culture; type: cell-based, Candida auris
A. fumigatus complex = settings: share of isolates, n = 59, EUCAST clinical breakpoints
[5] = test system: azole-resistant A. fumigatus SS clinical strains; assay: EUCAST E.DEF 9.3.2; type: cell-based; settings: Aspergillus fumigatus
[6] = test system: A. fumigatus veterinary isolates; assay: EUCAST microdilution of veterinary isolates; type: cell-based, Aspergillus fumigatus
Protocol: All have been confirmed as A. fumigatus by MALDI-TOF MS using the BCCM/IHEM database. The antifungal susceptibility was evaluated using the microdilution EUCAST method. Cyp51A gene sequencing has been performed on all resistant isolates.

A. flavus complex = settings: n = 6, EUCAST clinical breakpoints

## NC(N)=NCCC[C@H](NC(=O)[C@@H](N)Cc1ccccc1)C(=O)Nc1ccc2ccccc2c1 [PaβN, Phenylalanine-Arginine Beta-Naphthylamide] (H-Phe-Arg-βNA)
[1]
  efflux of rhodamine 6G: decrease the efflux of rhodamine 6G
[2]
  FICI: 0.5 and 0.5 to 0.6

## C[C@@H](c1nc(-c2ccc(C#N)cc2)cs1)[C@](O)(Cn1cncn1)c1cc(F)ccc1F [isavuconazole]
[3]
  median trough drug level: 3.29 mg/L
A. nidulans complex
  resistance of isolates: resistant
McLDM-F5-CPR
  MIC: 4 µg/mL (≈ 9.14 µM)
ISV blood levels, HPLC; 265 samples, 63 patients, first two months
  median blood level: 3.3 mg/L
ISV blood levels, HPLC; ICU patients
  blood level range: 0 to 8480 ng/mL
  median blood level: 1.95 mg/L
ISV blood levels, HPLC; during renal replacement therapy, 7/24
  samples with level <1 mg/L: 29.2%
ISV blood levels, HPLC; not receiving RRT, 7/46
  samples with level <1 mg/L: 15.2%
ISV blood levels, HPLC; all samples
  blood level range: 0 to 14520 ng/mL
ISV blood levels, HPLC; non-ICU patients
  blood level range: 0 to 14520 ng/mL
  median blood level: 4.1 mg/L
[4]
  change of MIC: largely unchanged
[4]; Isolate C with ERG11 WT in place of K143R
  reduction in MIC: 2 fold
A. fumigatus complex
  Resistance: 5%
[5]; strain from pleural fluid of an ICU patient, no mutations in cyp51A
  MIC: 1 µg/mL (≈ 2.29 µM)
[5]; two strains from a cystic fibrosis patient, TR34/L98H
  MIC: 8 µg/mL (≈ 18.3 µM)
[6]
  isolates in the area of technical uncertainty (ATU): 27%
  resistance of isolates: No resistance
A. flavus complex
  isolates resistant: 17%
